“Also recorded” adds a separate entry of the source.
Columns and labels:
MDA-MB-231 cells [1] = test: Membrane fluidity by EPR (S parameter), MDA-MB-231; type: cell-based, human; details: MDA-MB-231, pretreatment with non-cytotoxic dose
Description: (§1) Membrane fluidity was determined by a spin-labeling method using EPR, as previously described^27. Briefly, plasma membranes of living cells were labeled by incubating cells for 15 min at 37° C. with 12-doxyl stearic acid (36 μg/mL), a fatty acid with a stable nitroxide radical ring at the C-12 position. Cells were then washed twice with PBS to remove excess 12-doxyl stearic acid and EPR spectra of the labeled samples were acquired at ambient temperature on a Bruker Elexsys EPR spectrometer operating at 3509.25 G center field, 20 mW microwave power, 9.86 GHz microwave frequency, 1.77 G modulation amplitude, and 100 kHz modulation frequency. Fluidity of the spin-labeled membranes was quantified by calculating the S parameter. An increase in the S parameter reflects a decrease in membrane fluidity, and vice versa.

MDA-MB-231 cells [2] = test: Boyden chamber cell migration, MDA-MB-231; type: cell-based, human; details: MDA-MB-231, pretreatment with non-cytotoxic dose, cl-CD95L
Description: (§2) Boyden chambers contained membranes with a pore size of 8 μm (Millipore, Molsheim, France). After hydration of the membranes, mesenchymal cells (10^5 cells per chamber) or epithelial cells (3×10^5 cells per chamber) were added to the top chamber in low serum (1%)-containing medium. The bottom chamber was filled with low serum (1%)-containing medium in the presence or absence of cl-CD95L (100 ng/mL). Cells were cultured for 24 h at 37° C. To quantify migration, cells were mechanically removed from the top side of the membrane using a cotton-tipped swab, and migrating cells from the reverse side were fixed with methanol and stained with Giemsa. For each experiment, five representative pictures were taken for each insert, then cells were lyzed and absorbance at 560 nm correlated to the amount of Giemsa stain was measured.

lung cancer cells = details: via activation of protein phosphatase 2A; cited from earlier work
[3] = test system: mesenchymal breast cancer cells; test: Membrane fluidity by EPR, mesenchymal breast cancer cells; type: cell-based, human; details: for CD95-mediated increase in membrane fluidization: 1 μM pre-incubation 60 min, then cl-CD95L 100 ng/mL 30 min
Description: FIG. 1. Treatment of mesenchymal breast cancer cells with a non-toxic amount of exogenous C16:0 ceramide reduces plasma membrane fluidity and prevents basal and CD95-mediated cell migration. A. The indicated cells were pre-incubated with or without a non-cytotoxic dose (1 μM) of C16:0 ceramide (C16-Cer) for 60 min, and were then incubated with or without cl-CD95L (100 ng/mL) for 30 min. Membrane fluidity was assessed by EPR. Values are means±SEM of four independent experiments (*, p<0.05; ns, not significant). B. Indicated cells were pretreated with or without C16:0 ceramide ([…]) for 60 min and were then incubated with or without cl-CD95L (100 ng/mL) for 24 h. Cell migration was assessed by the Boyden chamber assay. Bars=70 μm. Giemsa-stained cells that migrated to the lower side of the membrane were lysed and absorbance at 560 nm was recorded. Values represent the means and SEM of three independent experiments (*p<0.05). Membrane fluidity was determined by a spin-labeling method using EPR, as previously described^27. Briefly, plasma membranes of living cells were labeled by incubating cells for 15 min at 37° C. with 12-doxyl stearic acid (36 μg/mL), a fatty acid with a stable nitroxide radical ring at the C-12 position. Cells were then washed twice with PBS to remove excess 12-doxyl stearic acid and EPR spectra of the labeled samples were acquired at ambient temperature on a Bruker Elexsys EPR spectrometer operating at 3509.25 G center field, 20 mW microwave power, 9.86 GHz microwave frequency, 1.77 G modulation amplitude, and 100 kHz modulation frequency. Fluidity of the spin-labeled membranes was quantified by calculating the S parameter. An increase in the S parameter reflects a decrease in membrane fluidity, and vice versa.

[4] = test system: mesenchymal breast cancer cells; test: Boyden chamber cell migration, mesenchymal breast cancer cells; type: cell-based, human; details: non-cytotoxic concentration; for basal migration: Boyden chamber 24 h; for CD95-mediated migration: cl-CD95L 100 ng/mL 24 h, Boyden chamber
Description: FIG. 1. Treatment of mesenchymal breast cancer cells with a non-toxic amount of exogenous C16:0 ceramide reduces plasma membrane fluidity and prevents basal and CD95-mediated cell migration. A. The indicated cells were pre-incubated with or without a non-cytotoxic dose (1 μM) of C16:0 ceramide (C16-Cer) for 60 min, and were then incubated with or without cl-CD95L (100 ng/mL) for 30 min. Membrane fluidity was assessed by EPR. Values are means±SEM of four independent experiments (*, p<0.05; ns, not significant). B. Indicated cells were pretreated with or without C16:0 ceramide ([…]) for 60 min and were then incubated with or without cl-CD95L (100 ng/mL) for 24 h. Cell migration was assessed by the Boyden chamber assay. Bars=70 μm. Giemsa-stained cells that migrated to the lower side of the membrane were lysed and absorbance at 560 nm was recorded. Values represent the means and SEM of three independent experiments (*p<0.05).
as §2

[5] = test system: CD95-mediated PI3K signaling pathway; test: Akt serine 473 phosphorylation (CD95-mediated PI3K signaling); type: cell-based
Description: Cells were lyzed for 30 min at 4° C. in lysis buffer (25 mM HEPES pH 7.4, 1% (v/v) Triton X-100, 150 mM NaCl, and 2 mM EGTA supplemented with a mixture of protease inhibitors). Protein concentration was determined by the bicinchoninic acid method (Pierce, Rockford, Ill., USA) according to the manufacturer's protocol. Proteins were resolved by 8, 10, or 12% SDS-PAGE and transferred to a nitrocellulose membrane (GE Healthcare, Buckinghamshire, UK). The membrane was blocked for 15 min with TBST (50 mM Tris, 160 mM NaCl, and 0.05% (v/v) Tween 20, pH 7.4) containing 5% (w/v) dried skimmed milk (TBSTM), and was then incubated overnight at 4° C. with the primary antibody diluted in TBSTM. The membrane was washed with TBST and was then incubated with peroxidase-labeled anti-mouse IgG1 or IgG2a (CliniSciences, Nanterre, France) for 45 min. Proteins were visualized using the enhanced chemiluminescence substrate kit (ECL RevelBlOt®, Ozyme, Saint Quentin en Yvelines, France).

[6] = test system: mesenchymal breast cancer cells; test: Cytotoxicity of exogenous C16:0 ceramide; type: cell-based, human; details: 1 μM
[7] = test system: epithelial cell line MCF7; test: Membrane fluidity by EPR, MCF7; type: cell-based, human; details: MCF7, non-cytotoxic concentration, 48 hours
Description: as §1

[8] = test system: epithelial cell line MCF7; test: Boyden chamber cell migration, MCF7; type: cell-based, human; details: MCF7, non-cytotoxic concentration
Description: as §2

CerS = details: cited from earlier work
NMuMG cells = details: cited from earlier work

CCCCCCCCC1CC1CCCCCCCC(=O)OCCOCCOC (centres unmarked) [A2C]
basal membrane fluidity (MDA-MB-231 cells [1]): significantly enhanced | CD95-mediated increase in plasma membrane fluidity (MDA-MB-231 cells [1]; then cl-CD95L): significantly enhanced | CD95-mediated migration (MDA-MB-231 cells [2]): stimulated

CCCCCCCCCCCCC/C=C/[C@@H](O)[C@H](CO)NC(C)=O [C2-ceramide]
migration of lung cancer cells in response to nicotine (lung cancer cells): inhibit

CCCCCCCCCCCCC/C=C/[C@@H](O)[C@H](CO)NC(=O)CCCCCCCCCCCCCCC [C16-ceramide, N-palmitoyl-D-sphingosine]
CD95-mediated increase in membrane fluidization [3]: inhibited | CD95-mediated increase in membrane fluidization ([3]; listed as C16:0 ceramide): completely inhibited | basal S parameter ([3]; non-cytotoxic concentration (1 μM), increase in S = decrease in fluidity): slightly increased | plasma membrane fluidity ([3]; non-toxic amount of exogenous C16:0 ceramide): reduces | basal migration [4]: impaired | basal migration ([4]; listed as C16:0 ceramide): prevents | CD95-mediated migration [4]: impaired; also recorded: inhibited | CD95-mediated migration ([4]; listed as C16:0 ceramide): prevents | CD95-mediated PI3K signaling pathway (phosphorylation at serine 473 of Akt) [5]: did not affect | cytotoxicity [6]: non-cytotoxic

CCCC[C@@H](C)[C@@H](OC(=O)C[C@@H](CC(=O)O)C(=O)O)[C@H](C[C@@H](C)C[C@H](O)CCCC[C@@H](O)C[C@H](O)[C@H](C)N)OC(=O)C[C@@H](CC(=O)O)C(=O)O [FB1, Fumonisin B1]
CD95-induced membrane fluidity [7]: slightly, but significantly, increased | basal membrane fluidity [7]: slightly, but significantly, increased | CD95-mediated cell migration [8]: enhanced | basal cell migration [8]: enhanced | CerS activity (CerS): selectively inhibits

gangliotetraosylceramide [Gg4]
reversal of TGF-β-induced EMT (NMuMG cells): does
